What was measured:
subcutaneous CT26 tumors = assay type: in vivo, BALB/c mice; details: injection of the agent instead of TNF-α
Procedure: All animal experiments were overseen and approved by the Animal Welfare Committee of Johns Hopkins University, and were in compliance with the University standards. For the subcutaneous tumor model, female, six to eight week-old BALB/c mice (Harlan Breeders) were used. Five million CT26 cells were injected subcutaneously into the right flank of each mouse and allowed to grow for ˜10 days before randomization, group assignment, and treatment. C. novyi-NT spores were administered by a bolus tail vein injection of 300 million spores suspended in 0.2 mL of phosphate buffered saline, pH 7.5 (PBS). Cytotoxic anticancer agents were administered 16 hours later via the same route. TNF-α was reconstituted freshly before administration in doubly-distilled H2O at 100 ng/mL and diluted into 0.1% (w/v) BSA in PBS at a final concentration of 10 ng/mL. Cytotoxic agents were injected within a few minutes thereafter. Tumor volume was calculated as […]. For the orthotopic brain tumor model, female C57BL6 mice, 5-6 weeks of age, were purchased from the NCI-Frederick. […] Animals were monitored for potential side effects following drug administration. […]

[1] = multiple injections (3 infusions/week) of a dose comparable to the highest mouse dose; cited from earlier work
CT26 tumors = assay: Treatment of fully developed subcutaneous CT26 tumors (tumor volume, survival); assay type: in vivo, BALB/c mice; details: TNF-α 25 ng/kg combined with Doxil or ^131I-labeled IgG
Procedure: For the subcutaneous tumor model, female, six to eight week-old BALB/c mice (Harlan Breeders) were used. Five million CT26 cells were injected subcutaneously into the right flank of each mouse and allowed to grow for ˜10 days before randomization, group assignment, and treatment. C. novyi-NT spores were administered by a bolus tail vein injection of 300 million spores suspended in 0.2 mL of phosphate buffered saline, pH 7.5 (PBS). Cytotoxic anticancer agents were administered 16 hours later via the same route. TNF-α was reconstituted freshly before administration in doubly-distilled H2O at 100 ng/mL and diluted into 0.1% (w/v) BSA in PBS at a final concentration of 10 ng/mL. Cytotoxic agents were injected within a few minutes thereafter. Tumor volume was calculated as length×width×0.5.

Row | Compound | induction of E^2PR by microtubule-interacting agent (subcutaneous CT26 tumors) | tolerability in humans [1] | cures and survival at lower dose of TNF-α (CT26 tumors)
1 | CCC1=C[C@@H]2CN(C1)Cc1c([nH]c3ccccc13)[C@@](C(=O)OC)(c1cc3c(cc1OC)N(C)[C@H]1[C@@](O)(C(=O)OC)[C@H](OC(C)=O)[C@]4(CC)C=CCN5CC[C@]31[C@@H]54)C2 [vinorelbine] | resulted in E^2PR, though not as impressively as TNF-α | – | –
2 | TNF-α | – | tolerate | none of the treated animals were cured, although prolonged survival was observed
3 | COc1ccc(/C=C\c2cc(OC)c(OC)c(OC)c2)cc1OP(=O)(O)O [Combretastatin A4P, combretastatin A4 phosphate] | resulted in E^2PR, though not as impressively as TNF-α | – | –
